What was measured:
Assay in all cases: Weeding effect in post-emergence stage (greenhouse pot test)
Format in all cases: in vivo
Conditions in all cases: 15 g a.i./ha, 3 weeks after application
[1] = test system: Abutilon theophrasti
Source text: (§1) The activity level criteria for plant damage (i.e., growth control rate) are as follows:
(§2) Level 5: growth control rate is above 85%;
(§3) Level 4: growth control rate is greater than or equal to 60% and less than 85%;
(§4) Level 3: growth control rate is greater than or equal to 40% and less than 60%;
(§5) Level 2: growth control rate is greater than or equal to 20% and less than 40%;
(§6) Level 1: growth control rate is greater than or equal to 5% and less than 20%;
(§7) Level 0: growth control rate is less than 5%.
(§8) The above growth control rates are fresh weight control rates.
(§9) Experiment on weeding effect in post-emergence stage:
(§10) Monocotyledonous and dicotyledonous weed seeds (Descurainia sophia, Capsella bursa-pastoris, Abutilon theophrasti, Galium aparine, Stellaria media, Lithospermum arvense, Rorippa indica, Alopecurus aequalis, Alopecurus japonicus, Beckmannia syzigachne, Sclerochloa dura, Conyza Canadensis, Phleum paniculatum, Veronica didyma Tenore, Eleusine indica, Bromus japonicus, Aegilops tauschii, Phalaris arundinacea, Amaranthus retroflexus, Chenopodium album, Commelina communis, Sonchus arvensis, Convolvulus arvensis, Cirsium setosum, Solanum nigrum, Acalypha australis, Digitaria sanguinalis, Echinochloa crusgalli, Setaria viridis, Setaria glauca, Leptochloa chinensis, Monochoria vaginalis, Sagittaria trifolia, Scirpus juncoides, Cyperus rotundus, Cyperus iria, Cyperus difformis, Fimbristylis, Portulaca oleracea, Xanthium sibiricum, Pharbitis nil) and major crop seeds (wheat, corn, rice, soybean, cotton, oilseed rape, millet, sorghum, potato, sesame, ricinus) were placed in plastic pots filled with soil, then covered with 0.5-2 cm of soil, allowed to grow in a good greenhouse environment. After 2 weeks of sowing, the test plants were treated in the 2-3 leaf stage. The tested compounds of the present invention were respectively dissolved in acetone, then added with Tween 80 and 1.5 liter/ha of emulsifiable concentrate of methyl oleate as synergist, diluted with a certain amount of water to obtain a solution with a certain concentration, and sprayed with a spray tower onto the plants. After the application, the plants were cultured for 3 weeks in the greenhouse, and then the experimental results of the weeding were counted. The doses of the used compounds were 500, 250, 125, 60, 15 g a.i./ha, and the averages were obtained by repeating for three times.

[2] = test system: Alopecurus japonicus
Source text: as §1, §2, §3, §4, §5, §6, §7, §8, §9, §10

[3] = test system: Amaranthus retroflexus
Source text: as §1, §2, §3, §4, §5, §6, §7, §8, §9, §10

[4] = test system: Beckmannia syzigachne
Source text: as §1, §2, §3, §4, §5, §6, §7, §8, §9, §10

[5] = test system: Digitaria sanguinalis
Source text: as §1, §2, §3, §4, §5, §6, §7, §8, §9, §10

[6] = test system: Echinochloa crusgalli
Source text: as §1, §2, §3, §4, §5, §6, §7, §8, §9, §10

[7] = test system: Galium aparine
Source text: as §1, §2, §3, §4, §5, §6, §7, §8, §9, §10

[8] = test system: Setaria viridis
Source text: as §1, §2, §3, §4, §5, §6, §7, §8, §9, §10

[9] = test system: Veronica didyma Tenore
Source text: as §1, §2, §3, §4, §5, §6, §7, §8, §9, §10

For CCOC(=O)c1cnc(-c2cc(-n3c(=S)cc(C(F)(F)F)n(C)c3=O)c(F)cc2Cl)s1 [1-103], which “Abutilon theophrasti, activity level (fresh weight growth control rate)” value (“Abutilon theophrasti, activity level” for short) [1] is on record?
The value was 5 (Level 5: growth control rate is above 85%).

And the “Alopecurus japonicus, activity level (fresh weight growth control rate)” value (shortened to “Alopecurus japonicus, activity level”) [2]?
The value was 4 (Level 4: growth control rate is greater than or equal to 60% and less than 85%).

And the “Amaranthus retroflexus, activity level (fresh weight growth control rate)” value (“Amaranthus retroflexus, activity level” below) [3]?
The value was 5 (Level 5: growth control rate is above 85%).

And the “Beckmannia syzigachne, activity level (fresh weight growth control rate)” value (“Beckmannia syzigachne, activity level” below) [4]?
The value was 4 (Level 4: growth control rate is greater than or equal to 60% and less than 85%).

What about the “Digitaria sanguinalis, activity level (fresh weight growth control rate)” value (shortened to “Digitaria sanguinalis, activity level”) [5] of the same molecule?
Its value is 5 (Level 5: growth control rate is above 85%).

What about the “Echinochloa crusgalli, activity level (fresh weight growth control rate)” value (“Echinochloa crusgalli, activity level” for short) [6] of the same molecule?
Its value is 5 (Level 5: growth control rate is above 85%).

What about the “Galium aparine, activity level (fresh weight growth control rate)” value (“Galium aparine, activity level” below) [7] of the same molecule?
Its value is 5 (Level 5: growth control rate is above 85%).

And the “Setaria viridis, activity level (fresh weight growth control rate)” value (“Setaria viridis, activity level” below) [8]?
The value was 5 (Level 5: growth control rate is above 85%).

And the “Veronica didyma Tenore, activity level (fresh weight growth control rate)” value (“Veronica didyma Tenore, activity level” for short) [9]?
Its value is 5 (Level 5: growth control rate is above 85%).

CCOC(=O)c1cnc(-c2nc(-n3c(=O)cc(C(F)(F)F)n(C)c3=O)c(F)cc2Cl)s1 [1-107] was tested. Which “Abutilon theophrasti, activity level” value [1] did it give?
The value was 5 (Level 5: growth control rate is above 85%).

What about the “Alopecurus japonicus, activity level” value [2] of the same molecule?
The value was 5 (Level 5: growth control rate is above 85%).

What about the “Amaranthus retroflexus, activity level” value [3] of the same molecule?
Its value is 5 (Level 5: growth control rate is above 85%).

And the “Beckmannia syzigachne, activity level” value [4]?
The value was 5 (Level 5: growth control rate is above 85%).

What about the “Digitaria sanguinalis, activity level” value [5] of the same molecule?
The value was 5 (Level 5: growth control rate is above 85%).

What about the “Echinochloa crusgalli, activity level” value [6] of the same molecule?
The value was 5 (Level 5: growth control rate is above 85%).

What about the “Galium aparine, activity level” value [7] of the same molecule?
The value was 5 (Level 5: growth control rate is above 85%).

And the “Setaria viridis, activity level” value [8]?
The value was 5 (Level 5: growth control rate is above 85%).

And the “Veronica didyma Tenore, activity level” value [9]?
Its value is 5 (Level 5: growth control rate is above 85%).

Which results are given for CCOC(=O)c1cnc(-c2cc(-n3c(=O)n(C)c(=S)n(C)c3=O)c(F)cc2Cl)s1 [1-113]?
Abutilon theophrasti, activity level (fresh weight growth control rate) [1]: 5 (Level 5: growth control rate is above 85%); Alopecurus japonicus, activity level (fresh weight growth control rate) [2]: 4 (Level 4: growth control rate is greater than or equal to 60% and less than 85%); Amaranthus retroflexus, activity level (fresh weight growth control rate) [3]: 5 (Level 5: growth control rate is above 85%); Beckmannia syzigachne, activity level (fresh weight growth control rate) [4]: 4 (Level 4: growth control rate is greater than or equal to 60% and less than 85%); Digitaria sanguinalis, activity level (fresh weight growth control rate) [5]: 4 (Level 4: growth control rate is greater than or equal to 60% and less than 85%); Echinochloa crusgalli, activity level (fresh weight growth control rate) [6]: 5 (Level 5: growth control rate is above 85%); Galium aparine, activity level (fresh weight growth control rate) [7]: 5 (Level 5: growth control rate is above 85%); Setaria viridis, activity level (fresh weight growth control rate) [8]: 5 (Level 5: growth control rate is above 85%); Veronica didyma Tenore, activity level (fresh weight growth control rate) [9]: 5 (Level 5: growth control rate is above 85%)

Which “Abutilon theophrasti, activity level” value [1] does the source give for CCOC(=O)c1cnc(-c2nc(-n3c(=O)n(C)c(=S)n(C)c3=O)c(F)cc2Cl)s1 [1-123] here?
The value was 5 (Level 5: growth control rate is above 85%).

What about the “Alopecurus japonicus, activity level” value [2] of the same molecule?
The value was 5 (Level 5: growth control rate is above 85%).

What about the “Amaranthus retroflexus, activity level” value [3] of the same molecule?
Its value is 5 (Level 5: growth control rate is above 85%).

What about the “Beckmannia syzigachne, activity level” value [4] of the same molecule?
The value was 5 (Level 5: growth control rate is above 85%).

And the “Digitaria sanguinalis, activity level” value [5]?
Its value is 5 (Level 5: growth control rate is above 85%).

And the “Echinochloa crusgalli, activity level” value [6]?
Its value is 5 (Level 5: growth control rate is above 85%).

And the “Galium aparine, activity level” value [7]?
The value was 5 (Level 5: growth control rate is above 85%).

And the “Setaria viridis, activity level” value [8]?
Its value is 5 (Level 5: growth control rate is above 85%).

And the “Veronica didyma Tenore, activity level” value [9]?
The value was 5 (Level 5: growth control rate is above 85%).

Source: patent US20230015308A1, “SUBSTITUTED THIAZOLE AROMATIC RING-BASED COMPOUND AND PREPARATION METHOD THEREFOR, HERBICIDAL COMPOSITION AND USE THEREOF” (QINGDAO KINGAGROOT CHEMICAL COMPOUND CO., LTD., priority 2019, published 2023)
